Source: patent publication EP0452067A2, “Oligosaccharide compounds and preparation thereof” (GENZYME CORPORATION, priority 1990, dated 1991)

Assays:
[1] = tested on: α-amylase; assay: Determination of kinetic and binding values of α-amylase substrates; type: biochemical; conditions: for Km: 50 mM PIPES pH 7.0, 50 mM NaCl, 5 mM CaCl₂, glucoamylase and maltase, 27°C, corrected for contaminating unblocked substrate
Description: All reactions were carried out in 50 mM PIPES buffer (pH 7.0) containing 50 mM NaCl, 5 mM CaCl₂, 10 units glucoamylase and 25 units maltase at 27°C. Each substrate concentration was run in duplicate and at least eight concentrations were examined for each substrate. Data from the reaction progress curves were fit to the Michaelis-Menten equation using Marquardt analysis. The Km values were corrected for contaminating unblocked substrate. The values V and K for the G₇ substrates are the average of two experiments. The error in the kinetic parameters from each experiment was less than 5% from the average reported.

[2] = tested on: pancreatic and salivary α-amylase; assay: Cleavage pattern, both amylases; type: biochemical; conditions: range over pancreatic and salivary α-amylase
[3] = target: T1, Pancreatic Amylase (Homo sapiens, UniProt P04746); assay: Cleavage pattern of substrates on hydrolysis with pancreatic amylase
T1 sequence (P04746 16-511): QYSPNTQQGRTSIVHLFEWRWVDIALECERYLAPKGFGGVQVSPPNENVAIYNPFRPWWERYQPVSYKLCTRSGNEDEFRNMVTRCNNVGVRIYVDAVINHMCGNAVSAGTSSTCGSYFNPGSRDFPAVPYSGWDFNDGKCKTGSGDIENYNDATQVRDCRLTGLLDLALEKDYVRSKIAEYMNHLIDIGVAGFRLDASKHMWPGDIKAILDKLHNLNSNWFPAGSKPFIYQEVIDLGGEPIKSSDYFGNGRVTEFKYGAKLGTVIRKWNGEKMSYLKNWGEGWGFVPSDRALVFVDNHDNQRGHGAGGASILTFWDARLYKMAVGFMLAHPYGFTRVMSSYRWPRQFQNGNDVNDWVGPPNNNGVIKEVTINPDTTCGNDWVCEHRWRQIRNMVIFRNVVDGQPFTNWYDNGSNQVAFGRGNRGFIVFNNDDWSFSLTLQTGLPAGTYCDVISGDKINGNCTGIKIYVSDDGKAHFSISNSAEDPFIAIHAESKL

Row | Compound | Km [1] [µM] | cleaved between glucoses 2 and 3 [2] | Cleavage Position (% of total) G 1/2 [3] | Cleavage Position (% of total) G 2/3 [3] | Cleavage Position (% of total) G 3/4 [3] | Cleavage Position (% of total) G 5/6 [3] | Total Hydrolysis (%) [3] [%] | Vmax, faster than the Bz-G₇-PNP ([1]; relative to Bz-G₇-PNP) [%] | cleaved between glucoses 3 and 4 [2] | Cleavage Position (% of total) G 4/5 [3] | V/K greater than that of the Bz-G₅-PNP ([1]; relative to Bz-G₅-PNP) [%] | cleaved between glucose units 1-2 [2]
1 | O=[N+]([O-])c1ccc(O[C@H]2O[C@H](CO)[C@@H](O[C@H]3O[C@H](CO)[C@@H](O[C@H]4O[C@H](CO)[C@@H](O[C@H]5O[C@H](CO)[C@@H](O[C@H]6O[C@H](CO)[C@@H](O[C@H]7O[C@H](CO)[C@@H](O[C@H]8O[C@@H]9COC(c%10ccccc%10)O[C@H]9[C@H](O)[C@H]8O)[C@H](O)[C@H]7O)[C@H](O)[C@H]6O)[C@H](O)[C@H]5O)[C@H](O)[C@H]4O)[C@H](O)[C@H]3O)[C@H](O)[C@H]2O)cc1 (stereo partly drawn) [Substrate 2, 4,6-0-benzylidene-4-nitrophenyl-α-D-maltoheptaoside] | 92 | 63 - 74% | 4.0 % of total | 63.1 % of total | 18.9 % of total | 13.6 % of total | 15.1 | – | – | – | – | –
2 | CC(C)(C)[Si](C)(C)OC[C@H]1O[C@H](O[C@H]2[C@H](O)[C@@H](O)[C@@H](O[C@H]3[C@H](O)[C@@H](O)[C@@H](O[C@H]4[C@H](O)[C@@H](O)[C@@H](O[C@H]5[C@H](O)[C@@H](O)[C@@H](O[C@H]6[C@H](O)[C@@H](O)[C@@H](O[C@H]7[C@H](O)[C@@H](O)[C@@H](Oc8ccc([N+](=O)[O-])cc8)O[C@@H]7CO)O[C@@H]6CO)O[C@@H]5CO)O[C@@H]4CO)O[C@@H]3CO)O[C@@H]2CO)[C@H](O)[C@@H](O)[C@@H]1O [Substrate 1, 6-0-t-butyldimethylsilyl-4-nitrophenyl-α-D-maltoheptaoside] | – | – | 1.1 % of total | 13.3 % of total | 65.6 % of total | – | 69.9 | 46 | 66 - 67% | 19.9 % of total | – | –
3 | O=[N+]([O-])c1ccc(O[C@H]2O[C@H](CO)[C@@H](O[C@H]3O[C@H](CO)[C@@H](O[C@H]4O[C@H](CO)[C@@H](O[C@H]5O[C@H](CO)[C@@H](O[C@H]6O[C@@H]7COC(c8ccccc8)O[C@H]7[C@H](O)[C@H]6O)[C@H](O)[C@H]5O)[C@H](O)[C@H]4O)[C@H](O)[C@H]3O)[C@H](O)[C@H]2O)cc1 (stereo partly drawn) [Substrate 4, 4,6-0-benzylidene-4-nitrophenyl-α-D-maltopentaoside] | 183 | – | 2.5 % of total | 19.4 % of total | 78.1 % of total | – | 42.9 | – | 78 - 84% | – | – | –
4 | CC(C)(C)[Si](C)(C)OC[C@H]1O[C@H](O[C@H]2[C@H](O)[C@@H](O)[C@@H](O[C@H]3[C@H](O)[C@@H](O)[C@@H](O[C@H]4[C@H](O)[C@@H](O)[C@@H](O[C@H]5[C@H](O)[C@@H](O)[C@@H](Oc6ccc([N+](=O)[O-])cc6)O[C@@H]5CO)O[C@@H]4CO)O[C@@H]3CO)O[C@@H]2CO)[C@H](O)[C@@H](O)[C@@H]1O [Substrate 3, 6-0-t-butyldimethylsilyl-4-nitrophenyl-α-D-maltopentaoside] | 87 | 40 - 60% | 59.4 % of total | 40.6 % of total | – | – | 31.6 | – | – | – | 19 | 40 - 60%
